What was measured:
VC4 and VC5 neurons = experiment: Quantification of percent neurodegeneration of VC4&5 neurons with drug treatment (Example 2); type: in vivo, C. elegans; settings: for neurodegeneration induced by APP or apl-1 (in words): 50 μM from L4-larval stage onward, FIG. 25A; for degeneration with gain-of-function mutation in egl-1 (in words): SC_APP and SC_apl-1 strains with egl-1 gain-of-function mutation; for degeneration of VC4&5, SC_APPC59 strain (in words): SC_APPC59 strain (intracellular portion of APP); for degeneration of VC4&5, SC_APPC59 strain (in words) / degeneration of VC4&5, SC_APPN636 strain (in words): FIG. 31; for degeneration of VC4&5, SC_APPN636 strain (in words): SC_APPN636 strain (extracellular and transmembrane portion of APP); for degeneration in egl-1 (null) mutant background (in words): egl-1 (null) background, FIG. 25C
Protocol: All analyses were completed with the experimenter blind to genotype and drug treatment. Age-synchronized animals were immobilized on 2% agar pads containing 0.7 mM sodium azide. Neurons that had broken/missing axonal projections, dimly-lit somas with missing projections or absent GFP labeling in the appropriate neuronal location were classified as degenerating. Serotonin neurons included NSM, ADF, AIM, RIH, HSN class members. All animals were evaluated within 10 minutes of azide treatment. In cases where the worm strains were too defective in egg laying to reach day 3 or 5 adult stage, animals were treated at L4-larval stage onward with the sterilization drug 5-fluoro-2′-deoxyuridne (0.12 mM final) (Sigma). […] The percentage of VC4 and VC5 neurons that succumbed to APP-induced degeneration was compared for different groups (strain, age, drug condition) using planned non-parametric X^2 analyses.
Drugs were freshly prepared in buffer (M9) solution and pipetted onto small seeded plates. These plates were allowed to dry at least 2 hours at RT before use. The final drug concentrations of solid media are: Dimebon, 50 μM (Tocris); P7C3, 50 μM. Well-fed larval stage 4 animals were picked onto seeded plates with or without drug. Animals were then allowed to age at 20° C. for ˜20 (day 1 adult), ˜68 (day 3 adult) and ˜116 hours (day 5 adult) before analysis. Controls using buffer with no drug were performed on each strain for each assay, and each assay was repeated multiple (3-8) times. Data were then averaged and statistically compared with planned non-parametric X2 analyses (Zar, 1999).

[1] = tested on: egg-laying and swimming behaviors; experiment: Egg-retention assay and swimming kinematics (behaviors that depend on VC4&5 neurons); type: in vivo, C. elegans; settings: for egg-laying and swimming behaviors, SC_APPC59 strain (in words): data not shown; for behavioral deficits (swimming and egg laying) with age (in words): drug-treated SC_APP:mCh or SC_apl-1:mCh individuals
Protocol: Plates of non-starved adult worms were bleached to yield a synchronized population of eggs. Eggs were allowed to develop for ˜55 hours (day 1 adult) and ˜103 (day 3 adult) hours at 20° C. Animals were then individually dissolved in 1N NaOH, and eggs retained within the dissolved adult animal were counted.
Worms were submerged in NGM liquid and recorded for 1 minute following a 2-minute acclimation period. Spine analysis software was then used to calculate and plot the midbody angle of the worm as described in Pierce-Shimomura J T, Chen B L, Mun J J, Ho R, Sarkis R, McIntire S L. 2008. Genetic analysis of crawling and swimming locomotory patterns in C. elegans. Proc Natl Acad Sci USA. 105: 20982-7, incorporated by reference. Head-bend frequency was determined based on the average time it took an animal to make 20 complete-cycle head bends.

neurons VC4 and VC5 = experiment: Degeneration of VC4 and VC5 neurons in single-copy apl-1/huAPP695 overexpression worms treated with drugs (Example 1); type: in vivo, C. elegans; settings: for APP-induced degeneration of VC4 and VC5 (in words): Example 1, FIG. 19, Table 3; for % degen / Day 1 (degenerated of counted) / Day 3 (degenerated of counted) / Day 5 (degenerated of counted): Dimebon
Source text: Many transgenic strains can be easily obtained from a public consortium (CGC), including those with specific neurons fluorescently labeled in a variety of colors. If not publicly available, these strains can be easily constructed using a PCR fusion approach. Final PCR products contain the GFP gene driven by a specific promoter-of-interest and are then microinjected into the gonad of adult wildtype animals. C. elegans have the ability to form a stable, functional extra-chromosomal array with injected PCR products. Therefore, they express injected DNA. Fluorescent worms are then crossed to the single-copy overexpression worms to generate overexpression worms with different identifiable sets of neurons labeled.

[2] = tested on: adult-born neurons in the hippocampus; settings: earlier reports; cited from earlier work
[3] = SC_huAPP695 strain, adult day 1
[4] = SC_huAPP695 strain, adult day 3
[5] = SC_huAPP695 strain, adult day 5

Structure (SMILES): O=c1[nH]c(=O)n([C@H]2C[C@H](O)[C@@H](CO)O2)cc1F [5-fluoro-2′-deoxyuridne]
- effect on progression of degeneration of VC neurons (in words) (VC4 and VC5 neurons; 0.12 mM final, from L4-larval stage onward (sterilization drug)): no effect on the progression of degeneration of VC neurons
- swimming defect of single-copy APP or apl-1 strains after sterilization (in words) ([1]; 0.12 mM final, swimming kinematics): displayed the same defect

Structure (SMILES): Cc1ccc2c(c1)c1c(n2CCc2ccc(C)nc2)CCN(C)C1 [Dimebon]
- APP-induced degeneration of VC4 and VC5 (in words) (neurons VC4 and VC5): prevents APP-induced neurodegeneration
- % degen (neurons VC4 and VC5; SC_apl-1 strain, adult day 1): 8.97%
- Day 1 (degenerated of counted) (neurons VC4 and VC5; SC_apl-1 strain, adult day 1): 14 of 156
- % degen (neurons VC4 and VC5; SC_apl-1 strain, adult day 3): 15.88%
- Day 3 (degenerated of counted) (neurons VC4 and VC5; SC_apl-1 strain, adult day 3): 27 of 170
- % degen (neurons VC4 and VC5; SC_apl-1 strain, adult day 5): 17.64%
- Day 5 (degenerated of counted) (neurons VC4 and VC5; SC_apl-1 strain, adult day 5): 12 of 68
- % degen (neurons VC4 and VC5; [3]): 10.66%
- Day 1 (degenerated of counted) (neurons VC4 and VC5; [3]): 13 of 122
- % degen (neurons VC4 and VC5; [4]): 15.45%
- Day 3 (degenerated of counted) (neurons VC4 and VC5; [4]): 17 of 110
- % degen (neurons VC4 and VC5; [5]): 16.67%
- Day 5 (degenerated of counted) (neurons VC4 and VC5; [5]): 13 of 78
- % degen (neurons VC4 and VC5; Wild-type strain, adult day 1): 4.63%
- Day 1 (degenerated of counted) (neurons VC4 and VC5; Wild-type strain, adult day 1): 5 of 108
- % degen (neurons VC4 and VC5; Wild-type strain, adult day 3): 6.45%
- Day 3 (degenerated of counted) (neurons VC4 and VC5; Wild-type strain, adult day 3): 8 of 124
- % degen (neurons VC4 and VC5; Wild-type strain, adult day 5): 12.93%
- Day 5 (degenerated of counted) (neurons VC4 and VC5; Wild-type strain, adult day 5): 15 of 116
- neurodegeneration induced by APP or apl-1 (in words) (VC4 and VC5 neurons): prevented neurodegeneration
- degeneration with gain-of-function mutation in egl-1 (in words) (VC4 and VC5 neurons): failed to prevent degeneration
- degeneration of VC4&5, SC_APPC59 strain (in words) (VC4 and VC5 neurons): prevented degeneration
- degeneration of VC4&5, SC_APPN636 strain (in words) (VC4 and VC5 neurons): failed to provide protection
- degeneration in egl-1 (null) mutant background (in words) (VC4 and VC5 neurons): no further protection from degeneration
- egg-laying and swimming behaviors, SC_APPC59 strain (in words) [1]: protection of egg-laying and swimming behaviors
- behavioral deficits (swimming and egg laying) with age (in words) [1]: without behavioral deficits
- adult-born hippocampal neurons (in words) [2]: promote the survival (prevent death) of adult-born hippocampal neurons

Structure (SMILES): CN1CCN2c3ccccc3Cc3ccccc3C2C1 (stereo not shown) [Mianserin]
- APP-induced degeneration of VC4 and VC5 (in words) (neurons VC4 and VC5): prevent APP-induced degeneration

Structure (SMILES): CN1CCN2c3ncccc3Cc3ccccc3C2C1 (stereo not shown) [Mirtazapine]
- APP-induced degeneration of VC4 and VC5 (in words) (neurons VC4 and VC5): prevent APP-induced degeneration

Structure (SMILES): OC(CNc1ccccc1)Cn1c2ccc(Br)cc2c2cc(Br)ccc21 (stereo not shown) [P7C3]
- neurodegeneration induced by APP or apl-1 (in words) (VC4 and VC5 neurons): significantly prevented neurodegeneration
- degeneration with gain-of-function mutation in egl-1 (in words) (VC4 and VC5 neurons): failed to prevent degeneration
- degeneration of VC4&5, SC_APPC59 strain (in words) (VC4 and VC5 neurons): prevented degeneration
- degeneration of VC4&5, SC_APPN636 strain (in words) (VC4 and VC5 neurons): failed to provide protection
- degeneration in egl-1 (null) mutant background (in words) (VC4 and VC5 neurons): no further protection from degeneration
- relative potency in dose response analysis (VC4 and VC5 neurons; prevention of VC4&5 degeneration, FIG. 25B): two-orders of magnitude more potent than Dimebon
- egg-laying and swimming behaviors, SC_APPC59 strain (in words) [1]: protection of egg-laying and swimming behaviors
- behavioral deficits (swimming and egg laying) with age (in words) [1]: without behavioral deficits
- adult-born hippocampal neurons (in words) [2]: increase the number of adult-born neurons in the hippocampus of mice

Reference: patent US20130024954A1, “Human Age-Related Neurodegenerative Nematode Model and Methods” (priority 2011, published 2013)
